The source of these data is patent publication US20260069581A1, “METHODS AND COMPOSITIONS FOR CANCER THERAPY” (OHIO STATE INNOVATION FOUNDATION, priority 2020, published 2026).

The test system of one experiment is MOLM13 cells. The experiment can be described thus: Western blotting of HR, NHEJ and ATM markers. The experiment is classed as cell-based, human. On the procedure:
(§1) Thereafter, cells were fixed, permeabilized and stained with BV421 mouse anti-H2A.X (pS139) (Clone N1-431). Stained cells were analyzed by flow cytometry. Results are shown as mean±SEM of duplicates. *p<0.05. N.S.: not significant. […] Results are shown as mean±SEM of duplicates. *p<0.05. […] MOLM13 cells were treated with vehicle control, 0.4 μM or 0.8 μM AR-42 alone, 0.1 μM or 0.25 μM KPT-2974 alone and drug combination for 24 hours before being subject to Western blotting analysis of HR, NHEJ and ATM markers. GAPDH served as loading control. Results are representative of two independent experiments. In the FIG. the treatment concentrations, protein detected in the given Western blot, and molecular weight of the protein detected are as shown in the figure. […] Scrambled or shHDAC8-transduced MOLM13 cells were treated with vehicle, 0.1 μM or 0.25 μM KPT-2974 before being subject to immunoblotting analysis of DNA repair targets. GAPDH serves as loading control. Results are representative of two independent experiments. In the FIG. the treatment concentrations, protein detected in the given Western blot, and molecular weight of the protein detected are as shown in the figure. […] PAPR1 was immunoprecipitated and mono-ADP-ribosylation was detected by western blotting. Results are representative of two independent experiments. […]

For experiment [1], the system named is luciferase-tagged MOLM13 cells. In words: In vivo MOLM13 xenograft study, efficacy. The settings on record: MOLM13-engrafted NCG mice; KPT-9274 100 mg/kg daily, AR-42 20 mg/kg every another day, oral gavage.
Procedure: NCG mice were engrafted with luciferase-tagged MOLM13 cells and treated with vehicle, 20 mg/kg AR-42, 100 mg/kg KPT-9274 and AR-42/KPT-9274 in combination.
Male NOD-Prkdc^em26cd52Il2rg^em26cd22/NjuCrl (NCG) mice (RRID:IMSR_CRL:572) (aged 6-8 weeks) were obtained from Charles River Laboratory. Mice were group-housed under conditions of constant photoperiod (12-hour light/12-hour dark), temperature, and humidity with adlibitum access to water and irradiated standard pelleted chow. 104 luciferase-tagged MOLM13 cells were injected via tail vein into NCG mice. On day 5 post-engraftment, mice were randomized to receive placebo (vehicle; Karyopharm Therapeutics) once daily, 100 mg/kg of KPT-9274 (Karyopharm Therapeutics) once daily, 20 mg/kg AR-42 every another day and the combination of KPT-9274 and AR-42 via oral gavage. Overall survival was the primary end point for the majority of the mice. A separate cohort of mice per group was used to monitor leukemic progression using IVIS imaging. Mice were monitored by animal technicians who were blinded to the treatment groups and determined when mice met early removal criteria (20% weight loss, lethargy, hunching, and poor body condition). Mice were euthanized by CO2 inhalation.
To determine the clinical relevance of the drug combination, the efficacy of co-treatment of AR-42 and KPT-9274 was tested in the MOLM13 xenograft model. […]
The subject of another experiment is IDH2-WT TF-1 cells. The experiment can be described thus: Phospho-H2A.X (pS139) flow cytometry. The experiment is classed as cell-based. Conditions: IDH2-WT TF-1, 48 hours, 0.8 μM AR-42, 0.1 μM KPT-9274. On the procedure:
as §1

Experiment [2] has as its system NHEJ activity in EJDR-reporter-stable U2OS cells. In words: EJDR reporter assay, NHEJ DsRed. In kind it is cell-based. On the procedure: EJDR reporter assay. The EJDR assay was described previously (20). EJDR reporter cells were plated at 5×10^5 cells per well in 10% FBS and RPM11640. After drug treatments, cells were grown in 10% Tet-free FBS (100-800; Gemini) and RPM11640. Incorporated I-Sce1 was induced with Shield1 (632189; Clontech) and triamcinolone (TA) (T6510; Sigma Aldrich) ligands for 24 hours. NHEJ and HR repair activities were assessed 48 hours post induction by quantification of DsRed- and GFP-positive cells on Cytomics FC 500 Flow Cytometer (Beckman Coulter, Brea, CA).
It was unclear whether the potent ability of HDAC inhibitor to induce apoptosis of AML cells in combination with NAMPT inhibition was due to the loss of HR or NHEJ activity alone or both together. Accordingly, HR and NHEJ activities in AML cells exposed to these treatments were examined using the EJDR reporter system (FIG. 6B). EJDR-reporter-stable U2OS cells were treated with vehicle, single agents, or drug combination before being incubated with ligands, TA and Shield 1. […] The expression of D-NHEJ pathway factors, Ku70 and DNA-PKcs, and ATM pathway mediators, CHEK1 and CHEK2, were abolished by AR-42 and KPT-9274 co-treatment. […] Therefore, suppression of HDAC8 can attenuate HR and D-NHEJ gene expressions, resulting in NAMPT inhibitor sensitivity.

Regarding `CC(C)[C@H](C(=O)Nc1ccc(C(=O)NO)cc1)c1ccccc1` [AR-42, (S)—N-Hydroxy-4-(3-methyl-2-phenylbutanamido)benzamide], in the experiment on MOLM13 cells (0.4 μM and 0.8 μM AR-42, monotherapy or with KPT-9274, 24 hours), the “levels of HR components CtIP, Rad51, phosphorylated BRCA1 and phosphorylated ATM” value is recorded as “significantly reduced”. The molecule further yielded a median survival time in experiment [1] of 29 days. Also, the “fluorescence intensity of phospho-H2A.X staining” value with IDH2-WT TF-1 cells is “slightly increased”. The “NHEJ activity (percentage of DsRed+ cells)” value in experiment [2] was “NHEJ deficiency”.

For the molecule `Nc1ccc(/C=C/C(=O)NCc2cc3cc(-c4ccc(C(=O)N5CCC(F)(F)CC5)cc4)cc(-c4ccc(F)cc4)c3o2)cn1` [KPT-9274, (E)-3-(6-aminopyridin-3-yl)-N-[[5-[4-(4,4-difluoropiperidine-1-carbonyl)phenyl]-7-(4-fluorophenyl)-1-benzofuran-2-yl]methyl]prop-2-enamide], the “abundance of D-NHEJ and ATM pathway mediators” value in the experiment with MOLM13 cells (shHDAC8-transduced MOLM13, 0.1 μM or 0.25 μM KPT-9274) is reported as “synergistically downregulated”. This molecule registered a median survival time in experiment [1] of 27 days. The “fluorescence intensity of phospho-H2A.X staining” value in the experiment with IDH2-WT TF-1 cells is reported as “slightly increased”. Further, the “NHEJ activity (percentage of DsRed+ cells)” value in experiment [2] is “more robust reduction”.
